Results from PMC7002685, “Inhibition of vascular calcification by inositol phosphates derivatized with ethylene glycol oligomers” (Nature Communications, 2020).
Read-outs that look alike come from different tables or passages of the source.

Columns and labels:
[1] = PK s.c. in rats with vitamin D and warfarin-induced VC; format: in vivo; settings: Sprague-Dawley, rat, plasma, sc, 50 mg/kg, 50 mg/kg s.c., Cardiovascular calcification model
Method: Moreover, the systemic exposure of the compound after s.c. administration was assessed in rats with VC (Fig. 4f, Supplementary Table 3).
To study PK in rats presenting with VC, plasma samples were used from a sub-group of the study where calcification was induced with vitamin D and warfarin treatment.
The bioanalytical method for (OEG2)2-IP4 in rat plasma was further optimized, qualified, and applied to the comparative PK study in adenine and high-phosphate diet-induced VC vs. vitamin D-induced VC animals. The LC-MS/MS analyses were carried out using a Dionex Ultimate RSLC ultra-high-pressure liquid chromatography (UHPLC) system (Thermo Fisher Scientific) coupled with a TSQ Quantiva^TM triple quadrupole mass spectrometer. The samples were stored at 5 °C in the autosampler prior to and during the analyses. […] Gradient elution (solvent A, 20 mM ammonium acetate in water (pH 5); solvent B, ACN) was used according to the program reported in Supplementary Table 18. The injection volume was 10 µL. MS/MS parameters (MRM acquisition, cycle time 0.2 s) for (OEG2)2-IP4 are reported in Supplementary Table 19 and the ESI source, working in negative ionization mode, applied the following parameters: static spray voltage 3000 V ion transfer tube and vaporizer temperatures at 400 and 100 °C, respectively; sheath and auxiliary gas (nitrogen) flow rates at 80 and 3 (arbitrary units). For the quantitative determination in rat plasma, product ion m/z 158.9 was selected because it provided the best sensitivity and selectivity. Calibration curve and quality control samples were prepared by adding 2 μL of working solution to 38 μL rat blank K3EDTA plasma (Biochemed, Winchester, VA) and precipitating plasma protein by addition of 120 μL of MeOH including internal standard OEG11-IP5. Samples were vortexed 1 min and centrifuged at (22,000 × g, 4 °C, 10 min). Supernatants (90 μL) were then transferred into a glass vial with insert and injected onto LC-MS/MS system. Both in adenine and high-phosphate diet-induced VC and vitamin D-induced VC rat PK samples were prepared for analysis in an analogous manner as done for spiked samples (assay volume 40 μL). The LLOQ and LOD in rat plasma for (OEG2)2-IP4 were 50 and 10 ng/mL, respectively. The ULOQ and detection was 50,000 ng/mL.

[2] = Compound stress test in D2O at 37 °C (NMR); format: physicochemical; settings: up to 6 weeks
Method: For the compound stress test, 20.25 mg (OEG2)2-IP4 in 700 µL D2O was incubated at 37 °C and stability was monitored by ^1H-NMR and ^31P-NMR spectroscopies for up to 6 weeks.
Monitoring the stability of (OEG2)2-IP4 in aqueous solution at 37 °C for up to 6 weeks by 1H-
Monitoring the stability of (OEG2)2-IP4 in aqueous solution at 37 °C for up to 6 weeks by 31P- […]

[3] = target: T1, ATPase, Na+/K+, Heart, Pig (Sus scrofa, UniProt P05024); assay: Off-target 107710; format: biochemical
T1 construct: purchased Eurofins Panlabs Discovery Services Taiwan, Ltd
Method: (§1) The potential off-target activity of 10 µM (OEG2)2-IP4 was assessed against a panel of 87 enzymes, receptors, or ion channels that are used in standard safety pharmacology screens.
(§2) 3.2. Off-target screening assay
(§3) The experiments were conducted by a contract research organization (Eurofins Panlabs Discovery
(§4) Services Taiwan, Ltd.) and details on the respective assays can be retrieved via the catalog number
(§5) provided in Supplementary Table 11 from the company’s webpage
(§6) (https://www.eurofinsdiscoveryservices.com/). […]

[4] = target: T2, Peptidase, Angiotensin Converting Enzyme (Oryctolagus cuniculus, UniProt P12822); assay: Off-target 107300; format: biochemical, Rabbit
T2 construct: purchased Eurofins Panlabs Discovery Services Taiwan, Ltd
Method: as §1, §2, §3, §4, §5, §6

Bradykinin B2 = target: T3, Bradykinin B2 (Homo sapiens, UniProt P30411); assay: Off-target 212320; format: binding
T3 construct: purchased Eurofins Panlabs Discovery Services Taiwan, Ltd
Method: as §1, §2
(§7) The experiments were conducted by a contract research organization (Eurofins Panlabs Discovery Services Taiwan, Ltd.) and details on the respective assays can be retrieved via the catalog number provided in Supplementary Table 11 from the company’s webpage
as §6
(§8) At sacrifice the left tibia of animals of the rat model with dietary adenine/high-phosphate-induced uremia and VC was collected, fixed with 70% v/v EtOH and embedded in methyl methacrylate. The trabecular bone compartment is known to be the most metabolic active i.e. actively re-structured bone compartment in CKD. Therefore, histomorphometric and micro-computed tomography (µCT) analysis of bone was performed on the trabecular compartment. Tibial sections were Goldner-stained for histomorphometric analysis of the proximal metaphysis using the AxioVision Release 4.5 software, as […]
(§9) described previously5. […]

[5] = target: T4, Cholecystokinin CCK1 (CCKA) (Homo sapiens, UniProt P32238); assay: Off-target 218030; format: binding
T4 construct: purchased Eurofins Panlabs Discovery Services Taiwan, Ltd
Method: as §1, §2, §7, §6, §8, §9

Glutamate, NMDA, Glycine = Glutamate, NMDA, Glycine (Rattus norvegicus, UniProt P35439); assay: Off-target 232910; format: binding
Method: as §1, §2, §3, §4, §5, §6

[6] = test system: Glutamate, NMDA, Polyamine; assay: Off-target 234000; format: binding, Rat; settings: 10 µM
Method: as §1, §2, §3, §4, §5, §6

Melanocortin MC1 = target: T5, Melanocortin MC1 (Homo sapiens, UniProt Q01726); assay: Off-target 251100 (MC1); format: binding
T5 construct: purchased Eurofins Panlabs Discovery Services Taiwan, Ltd
Method: as §1, §2, §7, §6, §8, §9

Muscarinic M3 = target: T6, Muscarinic M3 (Homo sapiens, UniProt P20309); assay: Off-target 252810; format: binding
T6 construct: purchased Eurofins Panlabs Discovery Services Taiwan, Ltd
Method: as §1, §2, §7, §6, §8, §9

hERG potassium channel = target: T7, hERG potassium channel (Homo sapiens, UniProt Q12809); assay: Off-target 265900; format: binding
T7 construct: purchased Eurofins Panlabs Discovery Services Taiwan, Ltd
Method: as §1, §2, §7, §6, §8, §9

[7] = target: T8, Serotonin (5-Hydroxytryptamine) 5-HT1B (Homo sapiens, UniProt P28222); assay: Off-target 271230; format: binding
T8 construct: purchased Eurofins Panlabs Discovery Services Taiwan, Ltd
Method: as §1, §2, §7, §6, §8, §9

[8] = parameters: method as in PMID 30280390; settings: after a 4-h i.v. infusion, cited from earlier work

Sequence of Glutamate, NMDA, Glycine (P35439 394-800 limits assumed): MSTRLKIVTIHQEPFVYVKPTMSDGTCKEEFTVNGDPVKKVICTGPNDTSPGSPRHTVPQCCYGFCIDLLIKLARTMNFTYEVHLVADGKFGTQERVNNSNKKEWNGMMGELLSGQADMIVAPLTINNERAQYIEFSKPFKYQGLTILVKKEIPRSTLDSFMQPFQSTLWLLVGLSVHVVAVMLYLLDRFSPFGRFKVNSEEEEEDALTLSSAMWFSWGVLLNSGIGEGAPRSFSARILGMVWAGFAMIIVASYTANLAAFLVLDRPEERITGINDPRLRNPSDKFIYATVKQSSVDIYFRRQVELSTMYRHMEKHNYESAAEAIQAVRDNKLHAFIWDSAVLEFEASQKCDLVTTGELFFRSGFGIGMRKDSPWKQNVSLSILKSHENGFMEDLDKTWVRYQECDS
T5 sequence (Q01726 whole entry): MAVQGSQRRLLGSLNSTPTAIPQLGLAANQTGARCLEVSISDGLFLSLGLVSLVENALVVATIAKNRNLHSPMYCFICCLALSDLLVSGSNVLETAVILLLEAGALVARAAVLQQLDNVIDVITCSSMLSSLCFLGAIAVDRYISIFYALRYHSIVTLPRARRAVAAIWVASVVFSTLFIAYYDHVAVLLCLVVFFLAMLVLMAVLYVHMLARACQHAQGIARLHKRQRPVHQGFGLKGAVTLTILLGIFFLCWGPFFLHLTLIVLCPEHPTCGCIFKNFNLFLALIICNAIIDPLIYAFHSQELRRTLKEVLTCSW
T4 sequence (P32238 whole entry): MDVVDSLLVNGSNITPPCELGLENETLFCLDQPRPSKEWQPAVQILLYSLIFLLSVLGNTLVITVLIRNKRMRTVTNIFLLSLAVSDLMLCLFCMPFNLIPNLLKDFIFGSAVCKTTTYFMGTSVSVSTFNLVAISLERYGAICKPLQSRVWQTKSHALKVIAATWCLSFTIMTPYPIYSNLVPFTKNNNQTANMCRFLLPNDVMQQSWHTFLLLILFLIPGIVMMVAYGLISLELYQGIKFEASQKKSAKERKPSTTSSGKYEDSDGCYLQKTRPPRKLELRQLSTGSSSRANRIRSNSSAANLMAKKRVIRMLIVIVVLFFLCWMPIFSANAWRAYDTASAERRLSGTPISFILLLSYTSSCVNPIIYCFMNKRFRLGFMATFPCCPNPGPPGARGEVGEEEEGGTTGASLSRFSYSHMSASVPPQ
T3 sequence (P30411 whole entry): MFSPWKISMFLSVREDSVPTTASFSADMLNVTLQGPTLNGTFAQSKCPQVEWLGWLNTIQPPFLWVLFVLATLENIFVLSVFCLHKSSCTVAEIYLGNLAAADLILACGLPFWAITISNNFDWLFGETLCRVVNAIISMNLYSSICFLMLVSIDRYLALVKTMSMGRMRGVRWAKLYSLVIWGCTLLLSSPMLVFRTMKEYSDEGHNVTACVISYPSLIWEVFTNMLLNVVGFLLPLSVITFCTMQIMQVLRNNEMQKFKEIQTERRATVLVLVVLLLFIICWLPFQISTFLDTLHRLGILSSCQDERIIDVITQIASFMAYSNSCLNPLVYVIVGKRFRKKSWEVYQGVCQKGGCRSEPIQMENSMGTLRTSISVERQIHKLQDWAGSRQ
T2 sequence (P12822 34-1310): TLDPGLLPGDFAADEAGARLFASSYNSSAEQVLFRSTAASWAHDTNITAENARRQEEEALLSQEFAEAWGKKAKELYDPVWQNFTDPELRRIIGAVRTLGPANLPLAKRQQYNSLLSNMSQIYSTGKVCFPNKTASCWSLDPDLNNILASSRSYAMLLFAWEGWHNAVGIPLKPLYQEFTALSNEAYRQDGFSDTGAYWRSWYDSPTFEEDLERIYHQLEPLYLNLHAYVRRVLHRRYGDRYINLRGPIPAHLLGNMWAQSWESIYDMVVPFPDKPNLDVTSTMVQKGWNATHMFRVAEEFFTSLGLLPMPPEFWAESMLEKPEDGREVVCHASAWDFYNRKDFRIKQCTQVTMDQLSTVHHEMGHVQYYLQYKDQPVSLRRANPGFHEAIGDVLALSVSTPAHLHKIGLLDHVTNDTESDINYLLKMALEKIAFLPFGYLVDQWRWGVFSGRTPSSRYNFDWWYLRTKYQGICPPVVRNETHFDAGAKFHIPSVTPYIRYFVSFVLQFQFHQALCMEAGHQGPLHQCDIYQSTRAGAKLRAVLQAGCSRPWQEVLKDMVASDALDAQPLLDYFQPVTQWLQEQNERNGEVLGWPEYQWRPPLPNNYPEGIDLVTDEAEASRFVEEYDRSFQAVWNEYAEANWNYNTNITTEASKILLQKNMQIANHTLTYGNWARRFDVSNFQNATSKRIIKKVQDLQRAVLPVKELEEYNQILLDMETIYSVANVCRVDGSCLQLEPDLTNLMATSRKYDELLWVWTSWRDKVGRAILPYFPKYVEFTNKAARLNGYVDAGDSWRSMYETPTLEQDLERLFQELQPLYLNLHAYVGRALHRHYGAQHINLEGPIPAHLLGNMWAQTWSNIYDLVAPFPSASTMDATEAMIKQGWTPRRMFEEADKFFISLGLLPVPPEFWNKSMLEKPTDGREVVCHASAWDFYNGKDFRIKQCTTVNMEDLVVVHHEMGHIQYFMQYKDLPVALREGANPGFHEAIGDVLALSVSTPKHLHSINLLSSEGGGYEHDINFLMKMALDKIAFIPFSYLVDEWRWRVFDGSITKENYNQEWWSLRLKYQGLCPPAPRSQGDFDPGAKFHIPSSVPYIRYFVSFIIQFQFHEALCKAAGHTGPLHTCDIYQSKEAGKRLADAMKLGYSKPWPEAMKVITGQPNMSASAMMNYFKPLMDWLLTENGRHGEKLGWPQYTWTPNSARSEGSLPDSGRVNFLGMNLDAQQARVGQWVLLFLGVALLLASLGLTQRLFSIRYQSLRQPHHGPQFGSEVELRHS
T6 sequence (P20309 whole entry): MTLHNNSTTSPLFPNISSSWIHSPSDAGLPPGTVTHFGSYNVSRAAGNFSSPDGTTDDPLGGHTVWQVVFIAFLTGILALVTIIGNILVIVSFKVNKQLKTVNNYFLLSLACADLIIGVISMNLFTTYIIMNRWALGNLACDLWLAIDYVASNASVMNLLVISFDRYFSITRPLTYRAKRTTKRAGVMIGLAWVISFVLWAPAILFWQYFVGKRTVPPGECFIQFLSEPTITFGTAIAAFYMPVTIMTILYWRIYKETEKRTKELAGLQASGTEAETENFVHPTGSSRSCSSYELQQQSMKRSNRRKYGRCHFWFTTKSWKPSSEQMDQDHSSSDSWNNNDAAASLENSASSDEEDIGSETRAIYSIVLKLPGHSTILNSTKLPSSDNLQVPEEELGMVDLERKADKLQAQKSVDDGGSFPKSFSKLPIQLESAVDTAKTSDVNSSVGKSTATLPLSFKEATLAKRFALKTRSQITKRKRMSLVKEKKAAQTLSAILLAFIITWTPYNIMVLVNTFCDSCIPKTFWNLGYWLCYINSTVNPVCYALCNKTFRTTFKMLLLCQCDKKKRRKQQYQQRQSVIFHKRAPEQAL
T8 sequence (P28222 whole entry): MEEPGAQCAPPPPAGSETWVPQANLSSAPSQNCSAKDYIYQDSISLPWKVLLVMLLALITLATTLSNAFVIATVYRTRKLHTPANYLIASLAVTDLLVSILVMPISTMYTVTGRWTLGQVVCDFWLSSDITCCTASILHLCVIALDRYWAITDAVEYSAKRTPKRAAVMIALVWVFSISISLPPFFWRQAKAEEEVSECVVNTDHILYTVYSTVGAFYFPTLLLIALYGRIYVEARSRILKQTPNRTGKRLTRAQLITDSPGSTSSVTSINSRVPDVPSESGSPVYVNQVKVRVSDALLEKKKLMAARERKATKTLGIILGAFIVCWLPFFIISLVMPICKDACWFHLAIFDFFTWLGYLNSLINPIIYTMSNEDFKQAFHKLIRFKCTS
T7 sequence (Q12809 whole entry): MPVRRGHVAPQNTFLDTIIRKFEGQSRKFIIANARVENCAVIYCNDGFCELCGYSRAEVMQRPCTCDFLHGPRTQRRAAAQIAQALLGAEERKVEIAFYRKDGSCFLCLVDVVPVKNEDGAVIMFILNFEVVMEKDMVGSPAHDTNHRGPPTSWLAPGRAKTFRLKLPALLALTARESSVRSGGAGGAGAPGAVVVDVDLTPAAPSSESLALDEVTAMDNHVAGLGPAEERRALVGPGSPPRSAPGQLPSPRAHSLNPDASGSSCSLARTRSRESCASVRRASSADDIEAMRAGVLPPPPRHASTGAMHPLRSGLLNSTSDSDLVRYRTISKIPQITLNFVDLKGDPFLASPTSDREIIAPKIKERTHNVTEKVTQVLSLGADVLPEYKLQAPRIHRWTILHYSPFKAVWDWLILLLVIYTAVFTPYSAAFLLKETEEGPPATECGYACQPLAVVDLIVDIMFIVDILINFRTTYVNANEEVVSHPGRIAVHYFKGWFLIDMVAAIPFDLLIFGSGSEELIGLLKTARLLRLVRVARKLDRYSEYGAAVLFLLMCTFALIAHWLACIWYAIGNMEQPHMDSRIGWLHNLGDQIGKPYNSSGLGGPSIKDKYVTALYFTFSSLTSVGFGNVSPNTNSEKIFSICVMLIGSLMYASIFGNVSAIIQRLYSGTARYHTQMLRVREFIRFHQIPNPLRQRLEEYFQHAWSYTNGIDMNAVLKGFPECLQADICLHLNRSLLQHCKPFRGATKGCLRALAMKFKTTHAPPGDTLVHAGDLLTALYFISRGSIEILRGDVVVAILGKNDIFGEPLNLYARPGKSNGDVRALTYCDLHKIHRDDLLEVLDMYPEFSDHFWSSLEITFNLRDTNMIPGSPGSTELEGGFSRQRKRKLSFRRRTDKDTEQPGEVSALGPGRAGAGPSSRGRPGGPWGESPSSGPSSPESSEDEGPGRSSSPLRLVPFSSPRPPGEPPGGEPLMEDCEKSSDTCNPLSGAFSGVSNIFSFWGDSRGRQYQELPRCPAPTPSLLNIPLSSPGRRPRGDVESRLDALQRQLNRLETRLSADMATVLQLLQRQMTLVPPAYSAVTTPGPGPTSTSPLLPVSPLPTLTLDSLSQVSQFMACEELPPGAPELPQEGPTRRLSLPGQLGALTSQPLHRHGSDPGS

Compound	AUC(0-inf) [1] [µM·h]	CL/F [1] [mL/min/kg]	Cmax [1] [µM]	half-life [1] [h]	AUC(0-t) ([1]; read-out: AUC0-1440 (converted)) [µM·h]	MRT last ([1]; read-out: MRT0-1440 (converted)) [h]	stability in aqueous solution by 1H- and 31P-NMR [2]	inhibition at 10 µM [3] [%]	inhibition at 10 µM [4] [%]	inhibition at 10 µM (Bradykinin B2) [%]	inhibition at 10 µM [5] [%]	inhibition at 10 µM (Glutamate, NMDA, Glycine) [%]	% Inhibition [6] [%]	inhibition at 10 µM (Melanocortin MC1) [%]	inhibition at 10 µM (Muscarinic M3) [%]	inhibition at 10 µM (hERG potassium channel) [%]	inhibition at 10 µM [7] [%]	plasma half-life (t1/2) ([8]; healthy volunteers) [h]	plasma half-life (t1/2) ([8]; hemodialyzed patients) [h]
COCCOCCO[C@@H]1[C@@H](OP(=O)(O)O)[C@H](OCCOCCOC)[C@@H](OP(=O)(O)O)[C@@H](OP(=O)(O)O)[C@H]1OP(=O)(O)O [(OEG2)2-IP4, 4,6-Di-O-(methoxy-diethyleneglycol)-myo-inositol-1,2,3,5-tetrakis(phosphate)]	152	7 ± 2	34 ± 8	3.73 ± 0.733	151	3.5	No compound degradation was evident	6	-23	-17	6	6	17	9	-6	11	-4		
O=P(O)(O)O[C@H]1[C@H](OP(=O)(O)O)[C@@H](OP(=O)(O)O)[C@H](OP(=O)(O)O)[C@@H](OP(=O)(O)O)[C@H]1OP(=O)(O)O [IP6, myo-Inositol hexakisphosphate]																		0.9	0.45
